In patent US10160785B2, “Antimicrobial peptides and their use for the treatment of topical infections” (priority 2015, dated 2018):
Where a SMILES comes first, the peptide text is derived from it.

Tests used:
[1] = system: Candida albicans (Olomouc); experiment: microbe, parasite or virus in culture; format: cell-based; details: RPMI broth microdilution, 35° C., 48 hours, visual
Method in brief: (§1)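 Broth microdilution in RPMI 1640 with 0.165 mol.l^−1 MOPS; peptide dilutions of 0.625–160 μmol.l^−1 were added to wells, then inoculum at 5×10^2–2.5×10^3 CFU/ml final. Plates were incubated unshaken at 35 °C. MIC was read visually at 48 h as the lowest concentration without visible growth.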

[2] = system: Candida albicans ATCC MYA-2876; experiment: microbe, parasite or virus in culture; format: cell-based; details: RPMI broth microdilution, 35° C., 48 hours, visual
Method in brief: as §1

Candida krusei ATCC 6258 = experiment: microbe, parasite or virus in culture; format: cell-based; details: RPMI broth microdilution, 35° C., 48 hours, visual
Method in brief: as §1

[3] = system: Candida glabrata ATCC 2001; experiment: microbe, parasite or virus in culture; format: cell-based; details: RPMI broth microdilution, 35° C., 48 hours, visual
Method in brief: as §1

Candida glabrata DSY 565 = experiment: microbe, parasite or virus in culture; format: cell-based; details: RPMI broth microdilution, 35° C., 48 hours, visual
Method in brief: as §1

[4] = system: Candida tropicalis ATCC 750; experiment: microbe, parasite or virus in culture; format: cell-based; details: RPMI broth microdilution, 35° C., 48 hours, visual
Method in brief: as §1

[5] = system: Candida dubliniensis ATCC MYA-646; experiment: microbe, parasite or virus in culture; format: cell-based; details: RPMI broth microdilution, 35° C., 48 hours, visual
Method in brief: as §1

[6] = system: P. aeruginosa (Liberec) biofilm; experiment: Bacterial biofilm, remaining metabolic activity (MTT); format: cell-based, Pseudomonas aeruginosa; details: remaining metabolic activity of biofilm, 20 h
Method in brief: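 Biofilms of S. aureus or P. aeruginosa (Liberec) were grown 24 h at 37° C with shaking in BHI plus 1% glucose from ca. 10^8 CFU/ml inocula. After washing, biofilms were exposed 20 h to peptides at 1–128 μmol.l^−1. Surviving metabolic activity was measured by MTT (40 min, formazan in DMSO, A540) as percent of untreated biofilm, blank-corrected.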

CCCC[C@H](NC(=O)[C@H](CC(C)C)NC(=O)[C@H](CO)NC(=O)[C@H](CO)NC(=O)[C@H](CCCC)NC(=O)[C@@H](NC(=O)CN)[C@@H](C)CC)C(=O)N[C@@H](CCCCN)C(=O)N[C@@H](CCCCN)C(=O)N[C@@H](CC(C)C)C(=O)N[C@@H](CCCCN)C(=O)N[C@@H](CCCCN)C(=O)N[C@H](C(=O)N[C@H](C(=O)N[C@@H](C)C(=O)N[C@@H](CCCCN)C(N)=O)[C@@H](C)CC)[C@@H](C)CC [V] (HELM PEPTIDE1{G.I.[Nle].S.S.L.[Nle].K.K.L.K.K.I.I.A.K.[am]}$$$$V2.0)
Antifungal activity MIC C. albicans Olomouc [1]: 12.0 µM
Antifungal activity MIC C. albicans ATCC MYA-2876 [2]: 19.0 µM
Antifungal activity MIC C. krusei ATCC 6258 (Candida krusei ATCC 6258): 5.0 µM
Antifungal activity MIC C. glabrata ATCC 2001 [3]: 24.0 µM
Antifungal activity MIC C. glabrata DSY 565 (Candida glabrata DSY 565): 44.0 µM
Antifungal activity MIC C. tropicalis ATCC 750 [4]: 1.0 µM
Antifungal activity MIC C. dubliniensis ATCC MYA-646 [5]: 26.0 µM
Metabolic activity (%) P. aeruginosa (Liberec) ([6]; peptide concentration 8 μmol · l^−1): 65.5%
Metabolic activity (%) P. aeruginosa (Liberec) ([6]; peptide concentration 16 μmol · l^−1): 59.8%
Metabolic activity (%) P. aeruginosa (Liberec) ([6]; peptide concentration 32 μmol · l^−1): 64.9%
Metabolic activity (%) P. aeruginosa (Liberec) ([6]; peptide concentration 64 μmol · l^−1): 61.4%
Metabolic activity (%) P. aeruginosa (Liberec) ([6]; peptide concentration 128 μmol · l^−1): 49.3%
